Tests used:
Assay in all cases: relative viability (nuclei count vs DMSO), 5 days (fraction); higher = more cells survive
[1] = compound: CCC1=CN=CN=C1N2CCN(CC2)CC3=NC4=C(N3)C=C(C=C4)C(F)(F)F + CC(=O)Nc1cccc(-n2c(=O)n(C3CC3)c(=O)c3c(Nc4ccc(I)cc4F)n(C)c(=O)c(C)c32)c1 [Trametinib] (partner 0.02 µM)
Procedure, shortened: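 Cells from lung cancer lines were seeded into 1536-well plates and, one day later, dosed by pin tool. Treatments were either a single drug or a fixed dose of an anchor drug with five library-drug doses (not always all listed) in √10 steps. After 5 days, nuclei were stained in a one-step fixation (final 0.05% Triton X-100, 1% formaldehyde, 1 ug/ml Hoechst) and counted on 4× images, and relative viability is the treated-to-vehicle nuclei ratio, as the median of duplicate plates.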

[2] = compound: CCC1=CN=CN=C1N2CCN(CC2)CC3=NC4=C(N3)C=C(C=C4)C(F)(F)F
Procedure, shortened: (§1)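 Five library-drug doses spaced by √10 were pinned onto vehicle-anchored 1536-well plates of lung cancer cell lines that had been kept overnight at 37 °C. Cells went 5 days without medium change, then were fixed, permeabilised and Hoechst-stained together, imaged at 4× and counted by MetaXpress. Viability is the ratio of treated-well to vehicle-well nuclei, taken as a median over plates. Plates required control CV below 25% and at least one doubling.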

[3] = compound: CCn1c(-c2nonc2N)nc2cnc(Oc3cccc(NC(=O)c4ccc(OCCN5CCOCC5)cc4)c3)cc21
Procedure, shortened: as §1

Mirin = compound: N=C1NC(=O)/C(=C/c2ccc(O)cc2)S1 [Mirin]
Procedure, shortened: as §1

Cell Line	relative viability ([1]; first compound 0.04 µM)	relative viability ([1]; first compound 0.1265 µM)	relative viability ([1]; first compound 0.4 µM)	relative viability ([1]; first compound 1.265 µM)	relative viability ([1]; first compound 4 µM)	relative viability ([2]; 0.04 µM)	relative viability ([2]; 0.1265 µM)	relative viability ([2]; 0.4 µM)	relative viability ([2]; 1.265 µM)	relative viability ([2]; 4 µM)	relative viability ([3]; 0.04 µM)	relative viability ([3]; 0.1265 µM)	relative viability ([3]; 0.4 µM)	relative viability ([3]; 1.265 µM)	relative viability ([3]; 4 µM)	relative viability (Mirin; 0.25 µM)	relative viability (Mirin; 0.7906 µM)	relative viability (Mirin; 2.5 µM)	relative viability (Mirin; 7.906 µM)	relative viability (Mirin; 25 µM)
NCI-H1975	0.36	0.342	0.319	0.309	0.422	1.04	0.951	0.931	0.844	0.942	0.824	0.636	0.49	0.427	0.304	1.07	1.03	0.94	1.01	0.979
NCI-H358	0.126	0.173	0.171	0.127	0.142	1.06	0.866	0.858	0.806	0.915	0.934	0.919	0.577	0.829	0.619	0.888	0.901	0.998	0.9	0.714
RERF-LC-KJ	0.795	0.798	0.821	0.76	0.774	0.956	0.968	1.01	0.924	0.991	1.02	0.971	0.872	0.619	0.637	1.07	1.08	1.01	1.04	1
NCI-H1792	0.585	0.389	0.403		0.522	0.79	0.749	0.814		0.96	1.05	0.773	0.343	0.458	0.599	0.775	0.925	0.859	0.711	1.06
NCI-H647	0.501	0.543	0.469	0.238	0.448	0.891	0.915	0.828	0.711	1.03	1.08	0.707	0.705	0.458	0.55	1.11	0.864	0.975	0.918	0.904
SK-LU-1	0.635	0.483	0.465	0.35	0.476	1.1	0.969	0.967	0.808	0.994	1.16	0.795	0.672	0.452	0.566	1.14	1.07	1.07	0.809	0.905
NCI-H441	0.482	0.452	0.464	0.37	0.499	1.09	0.926	0.896	0.877	1.09	1.26	1.12	0.541	0.807	0.727	1.11	1.01	1.1	0.886	0.993
COR-L 105	0.42	0.418	0.501	0.416	0.44	0.875	0.932	0.978	0.746	0.906	0.919	0.776	0.761	0.43	0.443	1.09	1.12	1.06	1.02	0.833
NCI-H1993	0.493	0.658	0.552	0.549	0.644	0.968	0.921	0.809	0.916	0.945	0.985	0.878	0.603	0.793	0.82	0.914	0.75	1.08	0.941	0.879
NCI-H1437	0.539	0.42	0.421	0.423	0.438	0.948	0.92	0.921	0.863	0.747	1.03	0.933	0.763	0.796	0.705	1	1.02	0.984	0.995	0.958
EBC-1						1.08	1.01	0.986	0.946	0.996	1.24	1.01	0.913	0.904	0.797	1.09	1.19	1.05	0.987	0.665
ABC-1						0.946	0.807	0.816	0.742	0.828	1.09	0.906	0.545	0.452	0.447	0.996	0.806	0.949	0.759	0.487
NCI-H1563						0.956	0.965	0.953	0.9	1	0.853	0.872	0.868	0.86	0.778	1.03	1.21	0.995	0.942	0.951
NCI-H1299						1.04	1.01	0.986	1.01	1.01	1.03	0.931	0.84	0.767	0.681	0.999	1.09	1.03	1	1.16
A549						0.978	0.868	0.921	0.934	0.89	1.24	1.01	0.742	0.116	0.116	1.01	0.982	1.05	0.913	0.953
NCI-H1623						0.897	0.996	0.873	0.832	1.17	1.13	1.02	0.974	0.902	1.08	0.967	1.08	1.04	0.823	0.738
NCI-H1703						0.953	0.914	0.819	0.73	0.968	1.02	0.809	0.616	0.635	0.41	1.07	0.925	0.966		0.83
Calu-6						1	0.986	0.953	0.898	0.925	1.05	1.02	0.841	0.604	0.549	1.02	1.07	1.06	0.923	0.987
